This passage reports Activity results from ChEMBL document CHEMBL1145297, “Synthesis, aerobic cytotoxicity, and radiosensitizing activity of novel 2,4-dinitrophenylamine tethered 5-fluorouracil and hydroxyurea” (Bioorg Med Chem Lett, 2006).

Data set [1] concerns HT-29. Put plainly: Radiosensitizing activity in 4 Gy [60Co] irradiated HT29 cells. The format is functional, cell-based. The note with it: Homo sapiens.
Data set [2] relates to HT-29. The data set is described as follows: Cytotoxicity against 4 Gy [60Co] irradiated HT29 cell line by MTT assay relative to control. Format: cell-based. Conditions: human. (In general: Tetrazolium assays rely on reduction of a dye to a coloured formazan, in cell work by metabolically active cells.)
For data set [3], the system named is HT-29. The data set is described as follows: Cytotoxicity against HT29 cell line without 4 Gy [60Co]-induced irradiation by MTT assay relative to control. Format: cell-based. Conditions: human.
The subject of data set [4] is HT-29. Put plainly: Cytotoxicity against HT29 cell line below 2.5 uM. Conditions: human. Format: cell-based.
In the next data set the test system is SP2. Put plainly: Radiosensitizing activity in SP2 cell line. Format: functional, cell-based. The note with it: Mus musculus.
Data set [5] deals with HT-29. Put plainly: Radiosensitizing activity in 4 Gy [60Co] irradiated HT29 cells at 2.5 uM. Conditions: Homo sapiens. Format: functional, cell-based.
In data set [6] the test system is HT-29. The data set is described as follows: Inhibition of viability in 4 Gy [60Co] irradiated HT29 cells at 10 uM relative to control. Format: functional, Homo sapiens.

Molecules are shown by their SMILES. Active and inactive are the calls of the source. The rule behind the calls is not given here.

As to `O=c1[nH]cc(F)c(=O)[nH]1` [FLUOROURACIL], in the data set with HT-29 [1], the outcome was inactive. Moreover, the Activity is listed as 65% in the data set on HT-29 [2], 65% in the data set on HT-29 [3] and “Not Active” with HT-29 [4].

For the compound `O=c1[nH]cc(F)c(=O)n1CCCNc1ccc([N+](=O)[O-])cc1[N+](=O)[O-]`, the result in the data set on SP2 and in the data set on HT-29 [5] was Active. Further, the Activity result in the data set with HT-29 [2] is reported as “Not Active”; in the data set with HT-29 [3], “Not Active”; with HT-29 [6] it was 60%.

As for `CCCNc1ccc([N+](=O)[O-])cc1[N+](=O)[O-]`, the outcome with HT-29 [1] was inactive. Also, the Activity in the data set on HT-29 [2] and in the data set with HT-29 [3] was 20% in each case.

In the case of `NC(=O)NO` [HYDROXYUREA], the Activity in the data set with HT-29 [2] and in the data set with HT-29 [3] was 25% throughout.

For `NC(=O)NOCCCNc1ccc([N+](=O)[O-])cc1[N+](=O)[O-]`, the outcome in the data set on SP2 and in the data set on HT-29 [5] was Active. The Activity result is on record as “Not Active” in the data set with HT-29 [2], “Not Active” in the data set on HT-29 [3] and 60% with HT-29 [6].
